Measured values taken from paper PMC8728392, “Synthesis, Anticancer Assessment, and Molecular Docking of Novel Chalcone-Thienopyrimidine Derivatives in HepG2 and MCF-7 Cell Lines” (Oxidative Medicine and Cellular Longevity, 2021).

Experiments:
[1] = test system: human breast cancer cell line (MCF-7); test: MTT assay, cytotoxicity; type: cell-based; settings: MCF-7; for survival percentage (mean ± SEM): 24 hours
Procedure: (§1) Cancer cell lines were manipulated according to the method described by Sigounas et al.. In this method, the cell lines were grown as adherent monolayers in T75 flasks with Dulbecco's modified Eagle's medium (DMEM) supplemented with 10% Fetal Bovine Serum (FBS), 2 mM L-glutamine, and 1% streptomycin/penicillin. The cells were left to grow in a CO2 incubator at 37°C, 5% CO2, and 95% humidity until their confluence.
(§2) The 3-[4,5-dimethylthiazol-2-yl]-2,5-diphenyltetrazolium bromide (MTT) colorimetric assay was used to examine the sensitivity of cells to tested compounds (as anticancer drugs), as previously described. This assay depends on the production of a purple formazan derivative from the yellow tetrazolium bromide (MTT) by mitochondrial succinate dehydrogenase in viable cells. The percentage of cell survival was calculated as follows: (1) Percentage of survival=O.D.treated cells/O.D.control cells×100.
(§3) For preliminary screening of the cytotoxicity of synthesized compounds 3a-g, cells exposed to DMSO were used as a control. Plotting the relationship between the survival score and the compound concentration and calculating the IC50 (the concentration required to inhibit cell viability by 50%) were performed for each test compound according to Li et al. in comparison with the reference standard anticancer agent, 5-FU.
(§4) The 3-[4,5-dimethylthiazol-2-yl]-2,5-diphenyltetrazolium bromide (MTT) colorimetric assay was used to examine the sensitivity of cells to tested compounds (as anticancer drugs), as previously described by Hussein et al. (2017). This assay depend on the production of a purple formazan derivative from the yellow tetrazolium bromide (MTT) by mitochondrial succinate dehydrogenase in viable cells. Briefly, after harvesting the cells with 0.25% trypsin, the cell lines were suspended in DMEM. Cells were seeded in 96-well microtiter plates at a concentration of 5×10^4 cell/well in a fresh medium and left to attach to the plates for 24 h before treatment with the tested compounds 3a-g. Test compounds were dissolved in dimethyl sulfoxide (DMSO). After 24 hours, cells were incubated with the appropriate concentration ranges of compounds, the wells were diluted to […] with fresh medium and incubation was continued for 24 hours. Three wells were used for each concentration. After 24 hours of treatment, 20 μl of MTT solution (5mg/ml) was added and subsequently the plates were further incubated for 4 hours to allow the viable cells to biotransform the yellow-colored MTT into purple formazan crystals. The optical density (O.D.) of each well was measured spectrophotometrically at […] with an enzyme-linked immunosorbent assay (ELISA) microplate reader (BioTek, EL-800, USA). The percentage of cell survival was calculated as follows: […]

[2] = test system: human liver cancer cell line (HepG2); test: MTT assay, cytotoxicity; type: cell-based; settings: HepG2; for survival percentage (mean ± SEM): 24 hours
Procedure: as §1, §2, §3, §4

HepG2 cell line = test: Cell cycle analysis (PI, flow cytometry); type: cell-based, human
Procedure: Cell cycle analysis was performed to decide if the newly synthesized thienopyrimidine derivatives arrested the cell cycle and at what phase of the cell cycle, the HepG2 and MCF-7 cell lines were arrested. The experiments were performed as previously described by Tolba et al.. HepG2 and MCF-7 cell lines were seeded and incubated with the tested compounds in 6-well plates. After incubation overnight, the cells were washed twice with ice-cold phosphate-buffered saline (PBS), detached by EDTA-trypsinization from the plates, harvested by centrifugation, fixed in ice-cold 70% (v/v) ethanol, and washed with phosphate-buffered saline (PBS, pH 7.2 ± 0.2). The cells were resuspended with 0.1 mg/ml RNase, stained with […] propidium iodide (PI), and analyzed by flow cytometry using a FACSCalibur flow cytometer (BD Biosciences, San Jose, CA). CellQuest software (Becton Dickinson) was used to determine the cell cycle distributions after incubation with 5-FU or tested compounds. Exposure of HepG2 and MCF-7 cell lines to these compounds could interfere with the normal cell cycle distribution.

For CCOC(=O)Cn1c(SCC(=O)Nc2ccc(C(=O)/C=C\c3cccc([N+](=O)[O-])c3)cc2)nc2sc3c(c2c1=O)CCN(C(=O)OCC)C3 [Compound 3c, Ethyl (Z)-3-(2-Ethoxy-2-oxoethyl)-2-((2-((4-(3-(3-nitrophenyl)acryloyl)phenyl)amino)-2-oxoethyl)thio)-4-oxo-3,5,6,8-tetrahydropyrido[4′,3′:4,5]thieno[2,3-d]pyrimidine-7(4H)-carboxylate], the melting point was 189 to 190 °C, the “survival percentage (mean ± SEM)” value ([1]; 4.8828125 μg/ml) was 149.3 ± 0.082% and the “survival percentage (mean ± SEM)” value ([1]; 9.765625 μg/ml) was 135.4 ± 0.066%. For the same molecule, the “survival percentage (mean ± SEM)” value ([1]; 19.53125 μg/ml) was 140.3 ± 0.197%, the “survival percentage (mean ± SEM)” value ([1]; 39.0625 μg/ml) was 132.0 ± 0.136% and the “survival percentage (mean ± SEM)” value ([1]; 78.125 μg/ml) was 121.5 ± 0.183%. For the same molecule, the “survival percentage (mean ± SEM)” value ([1]; 156.25 μg/ml) was 110.9 ± 0.063%, the “survival percentage (mean ± SEM)” value ([1]; 312.5 μg/ml) was 71.1 ± 0.156% and the “survival percentage (mean ± SEM)” value ([1]; 625 μg/ml) was 11.3 ± 0.026%. For the same molecule, the “survival percentage (mean ± SEM)” value ([1]; 1250 μg/ml) was 7.4 ± 0.003%, the “survival percentage (mean ± SEM)” value ([1]; 2500 μg/ml) was 6.4 ± 0.003% and the “survival percentage (mean ± SEM)” value ([1]; 5000 μg/ml) was 6.4 ± 0.007%. For the same molecule, the “survival percentage (mean ± SEM)” value ([1]; 10000 μg/ml) was 5.9 ± 0.002%, the “survival percentage (mean ± SEM)” value ([2]; 4.8828125 μg/ml) was 91.5 ± 0.013% and the “survival percentage (mean ± SEM)” value ([2]; 9.765625 μg/ml) was 81.6 ± 0.027%. The “survival percentage (mean ± SEM)” value ([2]; 19.53125 μg/ml) was 69.8 ± 0.027%, the “survival percentage (mean ± SEM)” value ([2]; 39.0625 μg/ml) was 63.0 ± 0.030% and the “survival percentage (mean ± SEM)” value ([2]; 78.125 μg/ml) was 62.4 ± 0.051%. The “survival percentage (mean ± SEM)” value ([2]; 156.25 μg/ml) was 22.1 ± 0.011%, the “survival percentage (mean ± SEM)” value ([2]; 312.5 μg/ml) was 21.1 ± 0.004% and the “survival percentage (mean ± SEM)” value ([2]; 625 μg/ml) was 20.6 ± 0.003%. For the same molecule, the “survival percentage (mean ± SEM)” value ([2]; 1250 μg/ml) was 20.1 ± 0.004%, the “survival percentage (mean ± SEM)” value ([2]; 2500 μg/ml) was 19.0 ± 0.002% and the “survival percentage (mean ± SEM)” value ([2]; 5000 μg/ml) was 18.8 ± 0.001%. The “survival percentage (mean ± SEM)” value ([2]; 10000 μg/ml) was 18.0 ± 0.001%, the “G1 phase cell population” value (HepG2 cell line) was “significant increase” and the “%DIP G1” value (HepG2 cell line; flow cytometry panel) was 55.32%.
With CCOC(=O)N1CCc2c(sc3nc(SCC(=O)Nc4ccc(C(=O)/C=C\c5cc(OC)c(OC)c(OC)c5)cc4)[nH]c(=O)c23)C1 [Compound 3e, Ethyl (Z)-4-Oxo-2-((2-oxo-2-((4-(3-(3,4,5-trimethoxyphenyl)acryloyl)phenyl)amino)ethyl)-thio)-3,5,6,8-tetrahydropyrido[4′,3′:4,5]thieno[2,3-d]pyrimidine-7(4H)-carboxylate] the melting point was 167 to 168 °C, the “survival percentage (mean ± SEM)” value ([1]; 4.8828125 μg/ml) was 147.1 ± 0.051% and the “survival percentage (mean ± SEM)” value ([1]; 9.765625 μg/ml) was 131.6 ± 0.132%. For the same molecule, the “survival percentage (mean ± SEM)” value ([1]; 19.53125 μg/ml) was 123.4 ± 0.070%, the “survival percentage (mean ± SEM)” value ([1]; 39.0625 μg/ml) was 129.1 ± 0.033% and the “survival percentage (mean ± SEM)” value ([1]; 78.125 μg/ml) was 109.2 ± 0.084%. For the same molecule, the “survival percentage (mean ± SEM)” value ([1]; 156.25 μg/ml) was 104.2 ± 0.026%, the “survival percentage (mean ± SEM)” value ([1]; 312.5 μg/ml) was 61.5 ± 0.112% and the “survival percentage (mean ± SEM)” value ([1]; 625 μg/ml) was 38.0 ± 0.030%. The “survival percentage (mean ± SEM)” value ([1]; 1250 μg/ml) was 27.8 ± 0.021%, the “survival percentage (mean ± SEM)” value ([1]; 2500 μg/ml) was 17.9 ± 0.002% and the “survival percentage (mean ± SEM)” value ([1]; 5000 μg/ml) was 16.0 ± 0.000%. For the same molecule, the “survival percentage (mean ± SEM)” value ([1]; 10000 μg/ml) was 15.9 ± 0.002%, the “survival percentage (mean ± SEM)” value ([2]; 4.8828125 μg/ml) was 127.5 ± 0.033% and the “survival percentage (mean ± SEM)” value ([2]; 9.765625 μg/ml) was 114.3 ± 0.141%. The “survival percentage (mean ± SEM)” value ([2]; 19.53125 μg/ml) was 91.9 ± 0.060%, the “survival percentage (mean ± SEM)” value ([2]; 39.0625 μg/ml) was 45.1 ± 0.072% and the “survival percentage (mean ± SEM)” value ([2]; 78.125 μg/ml) was 21.4 ± 0.073%. For the same molecule, the “survival percentage (mean ± SEM)” value ([2]; 156.25 μg/ml) was 21.1± 0.012%, the “survival percentage (mean ± SEM)” value ([2]; 312.5 μg/ml) was 19.8 ± 0.005% and the “survival percentage (mean ± SEM)” value ([2]; 625 μg/ml) was 18.9 ± 0.001%. The “survival percentage (mean ± SEM)” value ([2]; 1250 μg/ml) was 18.4 ± 0.003%, the “survival percentage (mean ± SEM)” value ([2]; 2500 μg/ml) was 17.4 ± 0.002% and the “survival percentage (mean ± SEM)” value ([2]; 5000 μg/ml) was 16.8 ± 0.003%. The “survival percentage (mean ± SEM)” value ([2]; 10000 μg/ml) was 14.1 ± 0.002%, the “cell population in G2/M compared with control cells” value (HepG2 cell line) was “substantial increase” and the “cell population in pre-G1 phases compared with control cells” value (HepG2 cell line) was “significant increase”.
In the case of CCOCc1nc2sc3c(c2c(=O)n1CC(=O)Nc1ccc(C(=O)/C=C\c2cccc([N+](=O)[O-])c2)cc1)CCN(C(=O)OCC)C3 [Compound 3f, Ethyl (Z)-2-(Ethoxymethyl)-3-(2-((4-(3-(3-nitrophenyl)acryloyl)phenyl)amino)-2-oxoethyl)-4-oxo-3,5,6,8-tetrahydropyrido[4′,3′:4,5]thieno[2,3-d]pyrimidine-7(4H)-carboxylate], the melting point is reported as 178 to 179 °C, the “cytotoxic activity (in words)” value [1] is reported as “lowest cytotoxic activity” and the “survival percentage (mean ± SEM)” value ([1]; 4.8828125 μg/ml) is reported as 149.7 ± 0.082%. The “survival percentage (mean ± SEM)” value ([1]; 9.765625 μg/ml) was 132.2 ± 0.214%, the “survival percentage (mean ± SEM)” value ([1]; 19.53125 μg/ml) was 127.7 ± 0.180% and the “survival percentage (mean ± SEM)” value ([1]; 39.0625 μg/ml) was 122.6 ± 0.121%. For the same molecule, the “survival percentage (mean ± SEM)” value ([1]; 78.125 μg/ml) was 120.2 ± 0.150%, the “survival percentage (mean ± SEM)” value ([1]; 156.25 μg/ml) was 119.7 ± 0.182% and the “survival percentage (mean ± SEM)” value ([1]; 312.5 μg/ml) was 92.0 ± 0.141%. The “survival percentage (mean ± SEM)” value ([1]; 625 μg/ml) was 67.1 ± 0.086%, the “survival percentage (mean ± SEM)” value ([1]; 1250 μg/ml) was 47.5 ± 0.181% and the “survival percentage (mean ± SEM)” value ([1]; 2500 μg/ml) was 6.2 ± 0.004%. For the same molecule, the “survival percentage (mean ± SEM)” value ([1]; 5000 μg/ml) was 5.1 ± 0.003%, the “survival percentage (mean ± SEM)” value ([1]; 10000 μg/ml) was 4.6 ± 0.002% and the “cytotoxic activity (in words)” value [2] was “lowest cytotoxic activity”. The “survival percentage (mean ± SEM)” value ([2]; 4.8828125 μg/ml) was 149.7 ± 0.200%, the “survival percentage (mean ± SEM)” value ([2]; 9.765625 μg/ml) was 149.1 ± 0.106% and the “survival percentage (mean ± SEM)” value ([2]; 19.53125 μg/ml) was 144.7 ± 0.140%. For the same molecule, the “survival percentage (mean ± SEM)” value ([2]; 39.0625 μg/ml) was 119.1 ± 0.122%, the “survival percentage (mean ± SEM)” value ([2]; 78.125 μg/ml) was 115.9 ± 0.157% and the “survival percentage (mean ± SEM)” value ([2]; 156.25 μg/ml) was 112.0 ± 0.460%. For the same molecule, the “survival percentage (mean ± SEM)” value ([2]; 312.5 μg/ml) was 77.8 ± 0.071%, the “survival percentage (mean ± SEM)” value ([2]; 625 μg/ml) was 15.3 ± 0.005% and the “survival percentage (mean ± SEM)” value ([2]; 1250 μg/ml) was 12.6 ± 0.019%. For the same molecule, the “survival percentage (mean ± SEM)” value ([2]; 2500 μg/ml) was 11.7 ± 0.009%, the “survival percentage (mean ± SEM)” value ([2]; 5000 μg/ml) was 11.6 ± 0.002% and the “survival percentage (mean ± SEM)” value ([2]; 10000 μg/ml) was 10.7 ± 0.004%.
